Results published in patent publication US7135466B2 (Kirin Beer Kabushiki Kaisha, priority 1999, dated 2006).

Experiments:
PDGF-Ra = biological target: T1, PDGF-Ra (Homo sapiens, UniProt P16234); test: Inhibitory activity against PDGF-Ra phosphorylation by PDGF-AA stimulation using G292; format: cell-based; conditions: for IC50: Pharmacological Test Example 1, > means inhibition at indicated concentration not more than 50%, < and << not less than 50%, read-out: PDGF (E) IC50
T1 construct: host or cells: G-292 human osteosarcoma cells
T1 sequence (P16234 24-1089): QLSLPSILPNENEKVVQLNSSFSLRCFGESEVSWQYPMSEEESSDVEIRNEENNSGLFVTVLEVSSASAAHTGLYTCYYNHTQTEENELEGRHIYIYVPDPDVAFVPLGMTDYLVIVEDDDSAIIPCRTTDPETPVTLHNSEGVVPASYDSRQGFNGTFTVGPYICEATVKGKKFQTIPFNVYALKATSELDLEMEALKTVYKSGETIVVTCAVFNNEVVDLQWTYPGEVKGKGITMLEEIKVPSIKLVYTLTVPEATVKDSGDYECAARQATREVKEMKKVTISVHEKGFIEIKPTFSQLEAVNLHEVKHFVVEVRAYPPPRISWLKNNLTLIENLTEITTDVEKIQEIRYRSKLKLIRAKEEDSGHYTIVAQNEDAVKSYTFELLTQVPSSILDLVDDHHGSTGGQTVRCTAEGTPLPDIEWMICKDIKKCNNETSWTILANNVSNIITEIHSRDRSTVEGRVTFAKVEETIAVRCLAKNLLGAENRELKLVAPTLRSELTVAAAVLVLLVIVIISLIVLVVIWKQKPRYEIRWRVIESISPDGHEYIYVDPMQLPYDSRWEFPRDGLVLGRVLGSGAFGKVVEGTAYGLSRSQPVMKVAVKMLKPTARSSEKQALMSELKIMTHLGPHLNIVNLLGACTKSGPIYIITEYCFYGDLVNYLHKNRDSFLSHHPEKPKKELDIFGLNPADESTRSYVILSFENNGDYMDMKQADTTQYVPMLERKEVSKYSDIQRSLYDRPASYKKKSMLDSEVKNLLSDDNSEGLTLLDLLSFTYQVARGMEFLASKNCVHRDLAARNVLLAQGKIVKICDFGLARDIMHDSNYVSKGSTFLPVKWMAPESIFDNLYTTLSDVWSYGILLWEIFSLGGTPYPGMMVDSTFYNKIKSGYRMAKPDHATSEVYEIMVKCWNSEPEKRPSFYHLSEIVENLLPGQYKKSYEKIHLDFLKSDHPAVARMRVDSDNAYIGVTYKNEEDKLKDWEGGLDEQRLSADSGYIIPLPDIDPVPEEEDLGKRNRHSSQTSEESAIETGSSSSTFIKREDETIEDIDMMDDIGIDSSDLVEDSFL
Outline: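 G-292 human osteosarcoma cells, serum-starved overnight in 0.1% FBS, were pretreated with compound in DMSO for 1 hr at 37 °C, then stimulated with 50 ng/ml PDGF-AA for 5 min. Lysates were captured on anti-phosphotyrosine PY-20 plates and probed with anti-PDGF-Ra plus HRP secondary; absorbance read at 450 nm.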

c-kit = biological target: T2, c-kit (Homo sapiens, UniProt P10721); test: Inhibitory activity against c-kit autophosphorylation (MO7e cells, h-SCF); format: cell-based; conditions: for IC50: MO7e cells, h-SCF 50 ng/ml, read-out: c-kit IC50; for inhibition at 1 µM: Mo7e, figure in parentheses in −( ), at 1000 nM
T2 construct: MO7e (human megakaryocytic leukemia cell line) which had been arrested for 20 hr; endogenous in cells; host or cells: MO7e human megakaryocytic leukemia cell line
T2 sequence (P10721 26-976): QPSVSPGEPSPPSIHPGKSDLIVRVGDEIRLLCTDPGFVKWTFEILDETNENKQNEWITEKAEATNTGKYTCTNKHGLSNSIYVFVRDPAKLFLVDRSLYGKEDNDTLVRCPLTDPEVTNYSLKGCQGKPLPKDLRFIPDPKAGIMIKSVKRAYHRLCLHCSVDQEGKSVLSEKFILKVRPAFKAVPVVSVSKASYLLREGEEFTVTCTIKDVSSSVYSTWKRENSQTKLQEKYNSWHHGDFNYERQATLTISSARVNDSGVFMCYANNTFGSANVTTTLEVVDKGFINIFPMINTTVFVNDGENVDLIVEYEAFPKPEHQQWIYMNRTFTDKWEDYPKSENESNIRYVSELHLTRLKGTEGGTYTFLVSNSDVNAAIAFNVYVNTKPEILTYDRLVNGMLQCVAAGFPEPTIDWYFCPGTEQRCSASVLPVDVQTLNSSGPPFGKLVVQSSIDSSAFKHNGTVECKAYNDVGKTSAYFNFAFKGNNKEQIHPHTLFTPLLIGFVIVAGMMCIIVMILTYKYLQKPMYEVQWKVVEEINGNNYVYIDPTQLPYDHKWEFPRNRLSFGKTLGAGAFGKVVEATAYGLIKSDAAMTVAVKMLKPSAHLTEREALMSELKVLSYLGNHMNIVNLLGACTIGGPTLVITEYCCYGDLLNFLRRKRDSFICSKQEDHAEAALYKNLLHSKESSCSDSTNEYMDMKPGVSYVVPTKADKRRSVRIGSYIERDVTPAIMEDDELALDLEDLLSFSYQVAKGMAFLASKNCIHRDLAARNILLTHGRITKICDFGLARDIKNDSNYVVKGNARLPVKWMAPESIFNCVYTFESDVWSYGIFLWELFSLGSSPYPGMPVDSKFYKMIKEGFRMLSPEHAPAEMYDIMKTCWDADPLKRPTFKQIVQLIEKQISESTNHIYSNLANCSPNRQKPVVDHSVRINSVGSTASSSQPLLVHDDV
Outline: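 Growth-arrested (20 hr) MO7e; cpd in DMSO, 1 hr; h-SCF 50 ng/ml, 5 min; lyse. ELISA: anti-pTyr (PY-20) capture, anti-c-kit 1° Ab, HRP anti-rabbit 2° Ab, A450.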

Row | SMILES | IC50 (PDGF-Ra) | IC50 (c-kit) | inhibition at 1 µM (c-kit) | inhibition at 0.1 µM (PDGF-Ra; G292, figure in parentheses in >100( ), at 100 nM, read-out: PDGF (E) inhibition (%) at 100 nM)
1 | COc1cccc(C(C)OC(=O)Nc2ccc(Oc3ncnc4cc(OC)c(OC)cc34)cc2Cl)c1 (centres unmarked) [Example 56, 1-(3-Methoxyphenyl)ethyl N-{2-chloro-4-[(6,7-dimethoxy-4-quinazolinyl)oxy]phenyl}carbamate] | 11 nM | 774 nM |  | 
2 | COc1cc2nccc(Oc3ccc(NC(=O)OCc4ccc(C(C)(C)C)cc4)cc3)c2cc1OC [Example 57, 4-(Tert-butyl)benzyl N-{4-[(6,7-dimethoxy-4-quinolyl)oxy]phenyl}carbamate] | 11 nM | 393 nM |  | 
3 | COc1ccc(COC(=O)Nc2ccc(Oc3ccnc4cc(OC)c(OC)cc34)cc2)cc1OC [Example 62, 3,4-Dimethoxybenzyl N-{4-[(6,7-dimethoxy-4-quinolyl)oxy]phenyl}carbamate] | 13 nM | 70 nM |  | 
4 | COc1ccc(COC(=O)Nc2ccc(Oc3ncnc4cc(OC)c(OC)cc34)cc2)cc1OC [Example 65, 3,4-Dimethoxybenzyl N-{4-[(6,7-dimethoxy-4-quinazolinyl)oxy]phenyl}carbamate] | < 10 nM | 103 nM |  | 
5 | COc1ccc(COC(=O)Nc2ccc(Oc3ncnc4cc(OC)c(OC)cc34)cc2Cl)cc1OC [Example 66, 3,4-Dimethoxybenzyl N-{2-chloro-4-[(6,7-dimethoxy-4-quinazolinyl)oxy]phenyl}carbamate] | 50 nM | 353 nM |  | 
6 | COc1ccc(OC)c(COC(=O)Nc2ccc(Oc3ccnc4cc(OC)c(OC)cc34)cc2)c1 [Example 67, 2,5-Dimethoxybenzyl N-{4-[(6,7-dimethoxy-4-quinolyl)oxy]phenyl}carbamate] | < 10 nM | 342 nM |  | 
7 | COc1cc2nccc(Oc3ccc(NC(=O)OCCCSc4ccc(C(C)(C)C)cc4)cc3)c2cc1OC [Example 72] | 36 nM | 387 nM |  | 
8 | COc1cc2nccc(Oc3ccc(NC(=O)OCCCSc4ccc(Cl)cc4C)cc3)c2cc1OC [Example 77, 3-[(4-Chloro-2-methylphenyl)sulfanyl]propyl N-{4-[(6,7-dimethoxy-4-quinolyl)oxy]phenyl}carbamate] | < 10 nM | 99 nM |  | 
9 | COc1cc2nccc(Oc3cc(C)c(NC(=O)OCCCSc4ccc(Cl)cc4C)cc3C)c2cc1OC [Example 79, 3-[(4-Chloro-2-methylphenyl)sulfanyl]propyl N-{4-[(6,7-dimethoxy-4-quinolyl)oxy]-2,5-dimethylphenyl}carbamate] | 18 nM | 123 nM |  | 
10 | COc1cc2ncnc(Oc3ccc(NC(=O)OCCCSc4ccc(Cl)cc4C)cc3)c2cc1OC [Example 80] | 12 nM | 137 nM |  | 
11 | COc1cc2ncnc(Oc3ccc(NC(=O)OCCCSc4ccc(Cl)cc4C)c(Cl)c3)c2cc1OC [Example 81, 3-[(4-Chloro-2-methylphenyl)sulfanyl]propyl N-{2-chloro-4-[(6,7-dimethoxy-4-quinazolinyl)oxy]phenyl}carbamate] | 12 nM | 408 nM |  | 

More lines, now with the values ahead:

Row | IC50 (PDGF-Ra) | IC50 (c-kit) | inhibition at 1 µM (c-kit) | inhibition at 0.1 µM (PDGF-Ra; G292, figure in parentheses in >100( ), at 100 nM, read-out: PDGF (E) inhibition (%) at 100 nM) | SMILES
12 | < 10 nM | 288 nM |  |  | COc1cccc(C(C)OC(=O)Nc2ccc(Oc3ncnc4cc(OC)c(OC)cc34)cc2)c1 (centres unmarked) [Example 55, 1-(3-Methoxyphenyl)ethyl N-{4-[(6,7-dimethoxy-4-quinazolinyl)oxy]phenyl}carbamate]
13 | 12 nM | 499 nM |  |  | COc1cc2nccc(Oc3ccc(NC(=O)OCc4ccc(C(C)(C)C)cc4)c(C)c3C)c2cc1OC [Example 58, 4-(Tert-butyl)benzyl N-{4-[(6,7-dimethoxy-4-quinolyl)oxy]-2,3-dimethylphenyl}carbamate]
14 | 57 nM |  | 33% |  | COc1cc2nccc(Oc3cc(C)c(NC(=O)OCc4ccc(C(C)(C)C)cc4)cc3C)c2cc1OC [Example 59, 4-(Tert-butyl)benzyl N-{4-[(6,7-dimethoxy-4-quinolyl)oxy]-2,5-dimethylphenyl}carbamate]
15 | < 10 nM | 261 nM |  |  | COc1cc2ncnc(Oc3ccc(NC(=O)OCc4ccc(C(C)(C)C)cc4)cc3)c2cc1OC [Example 60, 4-(Tert-butyl)benzyl N-{4-[(6,7-dimethoxy-4-quinazolinyl)oxy]phenyl}carbamate]
16 | 10 nM |  | 32% |  | COc1cc2ncnc(Oc3ccc(NC(=O)OCc4ccc(C(C)(C)C)cc4)c(Cl)c3)c2cc1OC [Example 61, 4-(Tert-butyl)benzyl N-{2-chloro-4-[(6,7-dimethoxy-4-quinazolinyl)oxy]phenyl}carbamate]
17 | 16 nM | 211 nM |  |  | COc1ccc(COC(=O)Nc2ccc(Oc3ccnc4cc(OC)c(OC)cc34)c(C)c2C)cc1OC [Example 63, 3,4-Dimethoxybenzyl N-{4-[(6,7-dimethoxy-4-quinolyl)oxy]-2,3-dimethylphenyl}carbamate]
18 | 90 nM | 429 nM |  |  | COc1ccc(COC(=O)Nc2cc(C)c(Oc3ccnc4cc(OC)c(OC)cc34)cc2C)cc1OC [Example 64, 3,4-Dimethoxybenzyl N-{4-[(6,7-dimethoxy-4-quinolyl)oxy]-2,5-dimethylphenyl}carbamate]
19 | 13 nM | 294 nM |  |  | COc1ccc(OC)c(COC(=O)Nc2ccc(Oc3ccnc4cc(OC)c(OC)cc34)c(C)c2C)c1 [Example 68, 2,5-Dimethoxybenzyl N-{4-[(6,7-dimethoxy-4-quinolyl)oxy]-2,3-dimethylphenyl}carbamate]
20 | 53 nM | 755 nM |  |  | COc1ccc(OC)c(COC(=O)Nc2cc(C)c(Oc3ccnc4cc(OC)c(OC)cc34)cc2C)c1 [Example 69, 2,5-Dimethoxybenzyl N-{4-[(6,7-dimethoxy-4-quinolyl)oxy]-2,5-dimethylphenyl}carbamate]
21 | < 10 nM | 451 nM |  |  | COc1ccc(OC)c(COC(=O)Nc2ccc(Oc3ncnc4cc(OC)c(OC)cc34)cc2)c1 [Example 70, 2,5-Dimethoxybenzyl N-{4-[(6,7-dimethoxy-4-quinazolinyl)oxy]phenyl}carbamate]
22 | 38 nM |  | 34% |  | COc1ccc(OC)c(COC(=O)Nc2ccc(Oc3ncnc4cc(OC)c(OC)cc34)cc2Cl)c1 [Example 71, 2,5-Dimethoxybenzyl N-{2-chloro-4-[(6,7-dimethoxy-4-quinazolinyl)oxy]phenyl}carbamate]
23 | 28 nM | 235 nM |  |  | COc1cc2nccc(Oc3ccc(NC(=O)OCCCSc4ccc(C(C)(C)C)cc4)c(C)c3C)c2cc1OC [Example 73, 3-{[4-(Tert-butyl)phenyl]sulfanyl}-propyl N-{4-[(6,7-dimethoxy-4-quinolyl)oxy]-2,3-dimethylphenyl}carbamate]
24 | > 100 nM |  | 14% | 37% | COc1cc2ncnc(Oc3ccc(NC(=O)OCCCSc4ccc(C(C)(C)C)cc4)c(Cl)c3)c2cc1OC [Example 76, 3-{[4-(Tert-butyl)phenyl]sulfanyl}propyl N-{2-chloro-4-[(6,7-dimethoxy-4-quinazolinyl)oxy]phenyl}carbamate]
25 | 16 nM | 129 nM |  |  | COc1cc2nccc(Oc3ccc(NC(=O)OCCCSc4ccc(Cl)cc4C)c(C)c3C)c2cc1OC [Example 78, 3-[(4-Chloro-2-methylphenyl)sulfanyl]propyl N-{4-[(6,7-dimethoxy-4-quinolyl)oxy]-2,3-dimethylphenyl}carbamate]
26 | 10 nM | 176 nM |  |  | COc1cc2nccc(Oc3ccc(NC(=O)OCCc4cccc(C(F)(F)F)c4)cc3)c2cc1OC [Example 82, 3-(Trifluoromethyl)phenethyl N-{4-[(6,7-dimethoxy-4-quinolyl)oxy]phenyl}carbamate]
